Calls of active or inactive are those of the source. The rule behind the calls is not given here.

In data set [1] the target is 5'-AMP-activated protein kinase catalytic subunit alpha-2 (Homo sapiens) (UniProt P54646). Description: Inhibition of recombinant human His6-tagged AMPK alpha2 at 10 uM using ULight CRBtide as substrate incubated for 1 hr followed by substrate addition and measured after 1 hr by TR-FRET assay relative to control. As to conditions: time 2.0 hrs.
In data set [2] the target is 5'-AMP-activated protein kinase catalytic subunit alpha-1 (Homo sapiens) (UniProt Q13131). Description: Inhibition of recombinant human His6-tagged AMPK alpha1 at 20 uM using ULight CRBtide as substrate incubated for 1 hr followed by substrate addition and measured after 1 hr by TR-FRET assay relative to control. The settings on record: time 2.0 hrs.
For data set [3] the target is unchanged. Description: Inhibition of wild-type human partial length AMPK alpha1 (M1 to E306 residues) expressed in bacterial expression system at 100 nM by Kinomescan method relative to control.
In data set [4] the test system is K562. The data set is described as follows: Inhibition of AMPK in human K562 cells assessed as p-ACC (Ser79) level at 5 uM in glucose free medium and in presence of 2-Deoxy-D-glucose measured after 3 hrs by ELISA relative to control. Type of data set: cell-based. On the technique in general: ELISA stands for enzyme-linked immunosorbent assay.
In data set [5] the target is Mast/stem cell growth factor receptor Kit (Homo sapiens) (UniProt P10721). The data set is described as follows: Inhibition of wild-type human partial length autoinhibited KIT (Y545 to D952 residues) expressed in mammalian expression system at 100 nM by Kinomescan method relative to control.
Data set [6] concerns K562. The data set is described as follows: Inhibition of AMPK in human K562 cells assessed as p-ACC (Ser79) level at 50 uM in glucose free medium and in presence of 2-Deoxy-D-glucose measured after 3 hrs by ELISA. Type of data set: cell-based.
Data set [7] addresses Vascular endothelial growth factor receptor 2 (Homo sapiens) (UniProt P35968). The settings on record: dose 100.0 nM.
Description: Inhibition of wild-type human partial length VEGFR2 (R787 to P1253 residues) expressed in mammalian expression system at 100 nM by Kinomescan method relative to control
The target in data set [8] is Tyrosine-protein kinase JAK1 (Homo sapiens) (UniProt P23458). The data set is described as follows: Inhibition of wild-type human partial length JAK1 JH2 pseudokinase domain (R537 to D855 residues) expressed in mammalian expression system at 100 nM by Kinomescan method relative to control.
In data set [9] the target is Macrophage colony-stimulating factor 1 receptor (Homo sapiens) (UniProt P07333). Description: Inhibition of wild-type human partial length CSF1R (I564 to S939 residues) expressed in bacterial expression system at 100 nM by Kinomescan method relative to control.
In data set [10] the target is 5'-AMP-activated protein kinase catalytic subunit alpha-2 (Homo sapiens) (UniProt P54646). Description: Inhibition of wild-type human partial length AMPK alpha2 (M1 to E306 residues) expressed in bacterial expression system at 100 nM by Kinomescan method relative to control.
Data set [11] deals with Vascular endothelial growth factor receptor 1 (Homo sapiens) (UniProt P17948). Description: Inhibition of wild-type human partial length FLT1 (R781 to F1239 residues) expressed in bacterial expression system at 100 nM by Kinomescan method relative to control.
Data set [12] can be described thus: Inhibition of recombinant human GST-tagged AMPK alpha1/beta1/gamma1 expressed in African green monkey COS7 cells assessed as reduction in AMPK beta 1 S108 phosphorylation incubated for 10 mins by [gamma 32-P]-ATP based radiometric scintillation counting analysis. Type of data set: cell-based.
Data set [13] in a line: Cytotoxicity against human K562 cells assessed as reduction in cell viability at 50 uM incubated for 72 hrs by MTS assay relative to control. The settings on record: read-out: INH. The format is cell-based. For orientation: Tetrazolium assays rely on reduction of a dye to a coloured formazan, in cell work by metabolically active cells.
Data set [14] is described as follows: Cytotoxicity against human K562 cells assessed as reduction in cell viability at 50 uM incubated for 24 hrs by celltox-green assay relative to control. Type of data set: cell-based. As to conditions: read-out: INH.
A short description of data set [15]: Cytotoxicity against human K562 cells assessed as reduction in cell viability at 50 uM incubated for 48 hrs by celltox-green assay relative to control. Type of data set: cell-based. As to conditions: read-out: INH.
Data set [16] in a line: Cytotoxicity against human K562 cells assessed as reduction in cell viability at 50 uM incubated for 24 hrs by cell-titer glo assay relative to control. Type of data set: cell-based. The settings on record: read-out: INH.
The subject of data set [17] is K562. Description: Cytotoxicity against human K562 cells assessed as reduction in cell viability incubated for 24 hrs by cell-titer glo assay. Type of data set: cell-based. The settings on record: K562, 24 h.
Data set [18] deals with K562. Description: Cytotoxicity against human K562 cells assessed as reduction in cell viability incubated for 48 hrs by celltox-green assay. As to conditions: K562, 48 h. Type of data set: cell-based.
In data set [19] the test system is K562. The data set is described as follows: Cytotoxicity against human K562 cells assessed as reduction in cell viability incubated for 72 hrs by MTS assay. The format is cell-based. As to conditions: K562, 72 h.
Data set [20] concerns K562. Description: Cytotoxicity against human K562 cells assessed as reduction in cell viability incubated for 24 hrs by celltox-green assay. The format is cell-based. As to conditions: K562, 24 h.
Data set [21] can be described thus: Cytotoxicity against human K562 cells assessed as reduction in cell viability at 1.56 uM incubated for 72 hrs by MTS assay relative to control. The settings on record: read-out: INH. Type of data set: cell-based.
Data set [22] deals with K562. Description: Inhibition of AMPK in human K562 cells assessed as p-ACC (Ser79) level at 3.125 to […] in glucose free medium and in presence of 2-Deoxy-D-glucose measured after 3 hrs by ELISA. Type of data set: cell-based. As to conditions: dose 3.125-12.5 µM.
The target of data set [23] is Tyrosine-protein kinase BTK (Homo sapiens) (UniProt Q06187). Description: Inhibition of wild-type human full length BTK (M1 to S659 residues) expressed in mammalian expression system at 100 nM by Kinomescan method relative to control.
Data set [24] has as its target Macrophage colony-stimulating factor 1 receptor (Homo sapiens) (UniProt P07333). The data set is described as follows: Inhibition of wild-type human partial length autoinhibited CSF1R (Y538 to S939 residues) expressed in mammalian expression system at 100 nM by Kinomescan method relative to control.

Chain of Macrophage colony-stimulating factor 1 receptor (Homo sapiens) (P07333 whole entry, the tested form may be a part): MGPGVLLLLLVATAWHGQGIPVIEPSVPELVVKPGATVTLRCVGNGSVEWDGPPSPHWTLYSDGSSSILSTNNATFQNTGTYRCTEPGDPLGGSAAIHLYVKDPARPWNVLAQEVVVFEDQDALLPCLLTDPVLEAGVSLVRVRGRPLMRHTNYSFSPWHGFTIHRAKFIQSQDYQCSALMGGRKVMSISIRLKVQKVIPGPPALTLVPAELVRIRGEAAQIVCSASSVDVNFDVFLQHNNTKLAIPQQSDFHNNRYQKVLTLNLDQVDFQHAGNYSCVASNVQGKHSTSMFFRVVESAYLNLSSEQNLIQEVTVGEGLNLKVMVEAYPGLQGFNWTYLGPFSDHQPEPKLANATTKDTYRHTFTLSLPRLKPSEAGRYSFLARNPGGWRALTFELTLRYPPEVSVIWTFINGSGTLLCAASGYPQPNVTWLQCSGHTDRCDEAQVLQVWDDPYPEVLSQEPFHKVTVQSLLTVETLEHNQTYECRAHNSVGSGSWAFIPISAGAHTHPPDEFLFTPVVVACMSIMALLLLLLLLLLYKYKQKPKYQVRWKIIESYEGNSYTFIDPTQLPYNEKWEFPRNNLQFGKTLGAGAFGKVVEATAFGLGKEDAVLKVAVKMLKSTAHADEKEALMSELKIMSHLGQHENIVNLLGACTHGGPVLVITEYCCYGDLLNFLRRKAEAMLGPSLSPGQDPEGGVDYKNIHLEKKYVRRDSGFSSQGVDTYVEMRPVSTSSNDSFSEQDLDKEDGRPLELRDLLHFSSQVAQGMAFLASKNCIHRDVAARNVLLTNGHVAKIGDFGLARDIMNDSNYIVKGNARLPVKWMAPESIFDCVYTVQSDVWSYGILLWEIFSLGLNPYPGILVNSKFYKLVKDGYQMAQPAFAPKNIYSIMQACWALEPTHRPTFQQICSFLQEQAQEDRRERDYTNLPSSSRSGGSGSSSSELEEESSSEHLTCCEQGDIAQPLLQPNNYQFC
Chain of 5'-AMP-activated protein kinase catalytic subunit alpha-2 (Homo sapiens) (P54646 whole entry, looked up, the tested form may be a part): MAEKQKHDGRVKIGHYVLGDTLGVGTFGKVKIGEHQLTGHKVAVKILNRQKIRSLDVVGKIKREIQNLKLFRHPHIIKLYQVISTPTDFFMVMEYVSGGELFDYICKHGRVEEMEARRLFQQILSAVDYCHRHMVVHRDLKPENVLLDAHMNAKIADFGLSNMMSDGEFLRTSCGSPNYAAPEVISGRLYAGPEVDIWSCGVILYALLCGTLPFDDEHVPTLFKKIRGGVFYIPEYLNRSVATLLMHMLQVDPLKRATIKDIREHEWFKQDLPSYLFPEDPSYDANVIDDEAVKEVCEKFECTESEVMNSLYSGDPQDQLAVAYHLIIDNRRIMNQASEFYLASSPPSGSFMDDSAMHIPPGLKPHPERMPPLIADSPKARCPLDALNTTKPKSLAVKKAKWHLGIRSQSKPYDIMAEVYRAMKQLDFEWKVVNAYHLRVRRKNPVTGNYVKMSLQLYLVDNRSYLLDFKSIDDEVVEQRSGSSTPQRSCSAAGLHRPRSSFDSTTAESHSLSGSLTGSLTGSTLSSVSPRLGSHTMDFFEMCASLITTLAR
Chain of 5'-AMP-activated protein kinase catalytic subunit alpha-1 (Homo sapiens) (Q13131 whole entry, looked up, the tested form may be a part): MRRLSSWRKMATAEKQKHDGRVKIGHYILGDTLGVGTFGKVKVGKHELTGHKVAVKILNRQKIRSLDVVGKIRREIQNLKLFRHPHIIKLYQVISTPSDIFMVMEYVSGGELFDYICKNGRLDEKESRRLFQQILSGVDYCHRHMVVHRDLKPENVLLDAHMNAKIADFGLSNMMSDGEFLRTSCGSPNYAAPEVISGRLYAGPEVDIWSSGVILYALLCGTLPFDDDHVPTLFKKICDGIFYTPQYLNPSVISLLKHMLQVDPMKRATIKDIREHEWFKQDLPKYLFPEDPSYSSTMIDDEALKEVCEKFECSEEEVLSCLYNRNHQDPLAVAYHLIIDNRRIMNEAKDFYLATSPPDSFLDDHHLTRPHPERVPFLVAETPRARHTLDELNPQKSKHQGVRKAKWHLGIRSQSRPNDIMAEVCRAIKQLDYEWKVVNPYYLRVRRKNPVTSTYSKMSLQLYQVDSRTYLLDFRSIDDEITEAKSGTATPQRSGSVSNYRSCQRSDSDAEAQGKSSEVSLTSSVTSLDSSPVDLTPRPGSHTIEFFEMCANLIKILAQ
Chain of Mast/stem cell growth factor receptor Kit (Homo sapiens) (P10721 whole entry, the tested form may be a part): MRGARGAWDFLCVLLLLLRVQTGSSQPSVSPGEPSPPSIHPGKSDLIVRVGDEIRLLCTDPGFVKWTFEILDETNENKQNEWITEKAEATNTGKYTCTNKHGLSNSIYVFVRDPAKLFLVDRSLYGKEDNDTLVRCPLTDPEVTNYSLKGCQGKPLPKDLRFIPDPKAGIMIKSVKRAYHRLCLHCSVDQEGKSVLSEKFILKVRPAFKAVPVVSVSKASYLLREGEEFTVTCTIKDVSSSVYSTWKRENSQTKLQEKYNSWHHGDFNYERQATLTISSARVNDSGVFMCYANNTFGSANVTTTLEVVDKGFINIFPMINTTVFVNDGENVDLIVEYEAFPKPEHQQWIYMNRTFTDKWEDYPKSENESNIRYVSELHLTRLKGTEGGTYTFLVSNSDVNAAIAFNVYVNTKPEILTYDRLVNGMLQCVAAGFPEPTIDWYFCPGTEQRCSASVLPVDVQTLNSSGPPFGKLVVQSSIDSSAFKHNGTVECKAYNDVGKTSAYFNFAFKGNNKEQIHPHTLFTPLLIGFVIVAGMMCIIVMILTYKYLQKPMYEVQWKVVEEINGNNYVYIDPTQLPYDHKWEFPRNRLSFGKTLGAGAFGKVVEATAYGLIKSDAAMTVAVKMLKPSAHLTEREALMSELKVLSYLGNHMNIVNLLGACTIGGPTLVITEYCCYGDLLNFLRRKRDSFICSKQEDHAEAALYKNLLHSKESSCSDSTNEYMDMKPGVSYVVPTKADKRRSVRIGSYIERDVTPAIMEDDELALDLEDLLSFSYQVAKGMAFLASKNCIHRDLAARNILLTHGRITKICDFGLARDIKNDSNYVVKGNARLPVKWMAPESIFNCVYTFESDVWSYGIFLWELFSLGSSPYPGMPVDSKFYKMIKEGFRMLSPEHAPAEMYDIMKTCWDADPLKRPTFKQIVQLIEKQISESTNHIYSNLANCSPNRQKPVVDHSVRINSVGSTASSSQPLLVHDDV
Chain of Vascular endothelial growth factor receptor 2 (Homo sapiens) (P35968 whole entry, the tested form may be a part): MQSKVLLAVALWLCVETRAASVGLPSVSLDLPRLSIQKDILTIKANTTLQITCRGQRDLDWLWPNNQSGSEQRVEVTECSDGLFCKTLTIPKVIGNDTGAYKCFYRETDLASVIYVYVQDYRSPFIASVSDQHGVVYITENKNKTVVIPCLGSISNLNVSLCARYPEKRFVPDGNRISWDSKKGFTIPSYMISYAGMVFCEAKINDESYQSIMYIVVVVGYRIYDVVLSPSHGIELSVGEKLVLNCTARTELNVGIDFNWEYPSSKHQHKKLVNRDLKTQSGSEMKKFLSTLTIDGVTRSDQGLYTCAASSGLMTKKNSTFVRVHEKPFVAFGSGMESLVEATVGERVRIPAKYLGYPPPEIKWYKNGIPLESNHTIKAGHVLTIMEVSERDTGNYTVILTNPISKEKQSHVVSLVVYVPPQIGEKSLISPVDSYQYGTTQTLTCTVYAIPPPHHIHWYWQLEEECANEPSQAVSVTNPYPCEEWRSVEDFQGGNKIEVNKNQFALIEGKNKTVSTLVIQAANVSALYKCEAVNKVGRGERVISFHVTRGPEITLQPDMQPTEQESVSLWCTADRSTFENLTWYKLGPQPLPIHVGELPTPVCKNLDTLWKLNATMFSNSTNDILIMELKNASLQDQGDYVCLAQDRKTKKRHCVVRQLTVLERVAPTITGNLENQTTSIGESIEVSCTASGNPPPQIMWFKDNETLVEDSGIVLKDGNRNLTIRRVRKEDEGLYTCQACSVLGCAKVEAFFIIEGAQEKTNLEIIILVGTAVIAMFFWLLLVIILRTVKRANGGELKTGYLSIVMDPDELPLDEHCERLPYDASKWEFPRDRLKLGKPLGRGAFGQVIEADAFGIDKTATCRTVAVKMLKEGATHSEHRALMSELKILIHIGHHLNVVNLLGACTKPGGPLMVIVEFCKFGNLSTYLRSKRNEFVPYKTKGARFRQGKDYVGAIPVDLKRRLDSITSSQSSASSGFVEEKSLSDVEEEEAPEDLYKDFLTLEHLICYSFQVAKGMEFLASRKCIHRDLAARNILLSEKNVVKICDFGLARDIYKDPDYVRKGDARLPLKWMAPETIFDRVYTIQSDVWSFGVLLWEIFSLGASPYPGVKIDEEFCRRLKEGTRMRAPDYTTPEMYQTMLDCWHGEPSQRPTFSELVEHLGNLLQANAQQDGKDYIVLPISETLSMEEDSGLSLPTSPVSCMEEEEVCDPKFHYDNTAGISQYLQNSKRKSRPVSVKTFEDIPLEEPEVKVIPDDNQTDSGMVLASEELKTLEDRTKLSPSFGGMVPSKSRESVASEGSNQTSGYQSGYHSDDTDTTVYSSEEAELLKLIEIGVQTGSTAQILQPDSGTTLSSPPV
Chain of Tyrosine-protein kinase BTK (Homo sapiens) (Q06187 whole entry, the tested form may be a part): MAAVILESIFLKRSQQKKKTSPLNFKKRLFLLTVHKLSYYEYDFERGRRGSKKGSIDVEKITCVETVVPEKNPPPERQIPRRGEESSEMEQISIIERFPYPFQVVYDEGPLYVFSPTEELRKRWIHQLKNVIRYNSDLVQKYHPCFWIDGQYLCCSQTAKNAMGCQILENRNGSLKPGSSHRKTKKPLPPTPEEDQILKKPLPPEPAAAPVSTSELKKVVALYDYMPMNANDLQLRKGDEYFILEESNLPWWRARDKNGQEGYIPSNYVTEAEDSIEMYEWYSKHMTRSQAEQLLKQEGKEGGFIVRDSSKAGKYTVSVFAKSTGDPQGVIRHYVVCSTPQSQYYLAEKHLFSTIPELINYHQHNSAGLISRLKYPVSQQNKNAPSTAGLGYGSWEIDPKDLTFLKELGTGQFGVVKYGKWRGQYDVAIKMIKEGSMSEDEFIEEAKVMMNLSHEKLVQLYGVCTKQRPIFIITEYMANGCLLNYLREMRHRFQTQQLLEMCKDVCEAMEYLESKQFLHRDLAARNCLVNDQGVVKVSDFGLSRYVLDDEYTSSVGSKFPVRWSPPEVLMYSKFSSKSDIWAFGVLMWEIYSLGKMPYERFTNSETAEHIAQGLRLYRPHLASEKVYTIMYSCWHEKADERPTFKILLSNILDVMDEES

The term inhibition denotes the share of the control response that was lost under treatment. With `CCc1ccc2c(c1)NC(=O)/C2=C\c1[nH]c(C)c(C(=O)NCCN(CC)CC)c1C`, the inhibition stood at 90% in data set [1] and 70% in data set [2].
Turning to `CCN(CC)CCNC(=O)c1c(C)[nH]c(/C=C2\C(=O)Nc3cc(C)ccc32)c1C`, the inhibition in [1] amounted to 88%.
With `CCCNC(=O)c1c(C)[nH]c(/C=C2\C(=O)Nc3ccc(F)cc32)c1C`, the inhibition came out at 48% in data set [1] and 30% in data set [2].
As to `CCN(CC)CCNC(=O)c1c(C)[nH]c(/C=C2\C(=O)Nc3ccc(CCO)cc32)c1C`, the inhibition in data set [3] is 49%; in data set [4], 23.7%; in data set [5], 28%; in data set [7] it was 55%; in data set [8] it was 54%; in data set [9], 24%. Besides, the inhibition in [10] stood at 35%; in data set [11], 42%. Also, the inhibition entry in data set [6] is “Active”.
As to `CCN(CC)CCNC(=O)c1c(C)[nH]c(/C=C2\C(=O)Nc3cc(C(C)C)ccc32)c1C`, the inhibition in [1] was determined as 69%.
In general, IC50 refers to the concentration that gives 50% inhibition. Regarding `CNC(=O)c1ccccc1Oc1nc(Nc2cc(OC)c(OC)c(OC)c2)ncc1Br`, in [12], the IC50 was 0.4 µM.
As to `CCN(CC)CCNC(=O)c1c(C)[nH]c(/C=C2\C(=O)Nc3ccc(CCNC(C)=O)cc32)c1C`, in data set [13], the cytotoxicity at 72 h, 50 µM was 64%. For the same compound, the results for the cytotoxicity at 24 h, 50 µM in data set [14] and in data set [16] were 5% and 98%, respectively. In addition, the cytotoxicity at 48 h, 50 µM in data set [15] worked out at 42%.
The term EC50 denotes the concentration at which the effect is half-maximal. Take `CCN(CC)CCNC(=O)c1c(C)[nH]c(/C=C2\C(=O)Nc3ccc(C#N)cc32)c1C`: in data set [13], the cytotoxicity at 72 h, 50 µM was 98%. In addition, the EC50 in data set [17] was 19.9 µM; in data set [18] it was 13.6 µM. Also, the cytotoxicity at 24 h, 50 µM in [14] came out at 75%.
Consider `CCNCCNC(=O)c1c(C)[nH]c(/C=C2\C(=O)Nc3ccc(F)cc32)c1C`, for which the EC50 worked out at 13.6 µM in data set [19], 12.9 µM in data set [20], 15.5 µM in data set [17] and 11.9 µM in data set [18].
On to `Cc1[nH]c(/C=C2\C(=O)Nc3ccc(F)cc32)c(C)c1C(=O)NCCN(C)C`, for which the EC50 in data set [19] is 12.6 µM. In addition, the results for the cytotoxicity at 24 h, 50 µM in [14] and in data set [16] were 70% and 98%, respectively.
For the compound `CCN(CC)CCNC(=O)c1c(C)[nH]c(/C=C2\C(=O)Nc3ccc(CCN=[N+]=[N-])cc32)c1C`, the EC50 in data set [19] was determined as 3.83 µM; in [17], 4.86 µM; in data set [18], 4.81 µM. For the same compound, in data set [14], the cytotoxicity at 24 h, 50 µM was 90%.
For the compound `CCN(CC)CCNC(=O)c1c(C)[nH]c(/C=C2\C(=O)Nc3cc(F)ccc32)c1C`, the EC50 is 2.85 µM in data set [19] and 7.15 µM in [18]. For the same compound, the values for the cytotoxicity at 24 h, 50 µM in [14] and in data set [16] were 61% and 98%, respectively.
As for `CCN(CC)CCCNC(=O)c1c(C)[nH]c(/C=C2\C(=O)Nc3ccc(F)cc32)c1C`, the concentration giving a half-maximal response (EC50) in [19] stood at 13.5 µM; in data set [17], 18 µM. Further, in [14], the cytotoxicity at 24 h, 50 µM is 63%.
With `CCN(CC)CCNC(=O)c1c(C)[nH]c(/C=C2\C(=O)Nc3ccc(CCC#N)cc32)c1C`, the inhibition in data set [4] worked out at 34.1%. Besides, the EC50 in [19] was determined as 14.8 µM; in [17] it was 17.8 µM; in data set [18] it was 13.6 µM. Further, in [14], the cytotoxicity at 24 h, 50 µM was found to be 64%.
Regarding `CCN(CC)CCNC(=O)c1c(C)[nH]c(/C=C2\C(=O)Nc3cc(Br)ccc32)c1C`, the inhibition in data set [2] was determined as 89%.
In the case of `CCN(CC)CCNC(=O)c1c(C)[nH]c(/C=C2\C(=O)Nc3cc(Cl)ccc32)c1C`, the EC50 stood at 5.24 µM in data set [20], 3.83 µM in data set [17] and 4.18 µM in data set [18]. For the same compound, in data set [21], the cytotoxicity at 72 h, 1.56 µM was found to be 65%.
Turning to `Cc1[nH]c(/C=C2\C(=O)Nc3ccc(F)cc32)c(C)c1C(=O)O`, the inhibition in [1] amounted to 85%; in [2] it was 78%.
Regarding `CCN(CC)CCNC(=O)c1c(C)[nH]c(/C=C2\C(=O)N(C)c3ccc(F)cc32)c1C`, the results for the inhibition in data set [1] and in [2] were 17% and 40%, respectively. The EC50 is 6.79 µM in [19], 12.1 µM in data set [20] and 11.8 µM in data set [17].
Regarding `CCN(CC)CCNC(=O)c1c(C)[nH]c(/C=C2\C(=O)Nc3ccc(CCC(N)=O)cc32)c1C`, the inhibition worked out at 29% in data set [3]; 29.2% in data set [4]; 0% in data set [5]; 19% in data set [7]; 0% in data set [23]; 41% in data set [8]. Also, the inhibition stood at 18% in data set [9], 64% in data set [10] and 14% in [24]. In data set [22], the inhibition entry is “Active”.
